In EP2605769B1, “BENZOQUINONE DERIVATIVES FOR THE TREATMENT OF MITCHONDRIAL EYE DISEASES” (Santhera Pharmaceuticals (Schweiz) AG, priority 2010, dated 2012):

How the values were obtained:
[1] = tested on: Primary human fibroblasts C4 (GM04545, Coriell); test: Lipid peroxidation assay (BODIPY 581/591-C11); assay type: cell-based; conditions: 10 µM test compound, 72 hours
Excerpt: Lipid peroxidation is a well defined mechanism of cellular damage in both animals and plants that occurs during aging and in some disease states. This process proceeds by a free radical chain reaction mechanism. […] If not terminated fast enough, lipid peroxidation damages cellular membranes, affect membrane fluidity and also mitochondrial function. In addition, end products of lipid peroxidation may be mutagenic and carcinogenic. For instance, the reactive end product of lipid peroxidation, malondialdehyde, directly causes DNA damage. Experimental Procedure: […] BODIPY 581/591-C11 can be used to measure antioxidant activity in lipid environments by exploiting its loss of fluorescence upon interaction with peroxyl radicals. […] After that, 0.1 ml freshly prepared dye solution (HBSS, containing BODIPY dye 1:1000 from stock solution) was added and cells were returned to the incubator for 30 min. After 2 brief washes with 0.1 ml warmed PBS fluorescence was measured in 50 µl PBS. Fluorescence for 4 individual areas per well were individually quantified at two wavelengths (Ex1: 490, Em1: 600; Ex2: 490, Em2: 530, bandwith 10nm, 50 flashes, 400Hz frequency, 20 µs integration time).

RGC-5 cells = test: Cellular viability of RGC-like cells challenged with rotenone (cellular ATP content); assay type: cell-based; conditions: 1 day-preincubation, 100 µM
Excerpt: Mitochondrial impairment directly influences cellular survival. Especially cells and tissues that display high level of energy consumption, such as neurons are especially vulnerable. Consequently, these cells and tissues are likely to be the most responsive to a strategy that targets mitochondrial function. We addressed this possibility by assessing the viability of the retinal ganglion cell line RGC-5, challenged with the mitochondrial complex I inhibitor rotenone, in the absence or presence of compounds.
Experimental procedure: RGC-5 cells were cultured under ambient conditions (37 °C, 5% CO2, 90% humidity) in DMEM (1g/l glucose; 10% fetal bovine serum (FBS), Penicillin-Streptomycin-Glutamine (PSG)). RGC-5 cells will be seeded in DMEM (1g/l glucose; 2% FBS) into BD Falcon™ cell culture plates. Before rotenone- induced complex I inhibition, the cells were pre-treated with Compound IA or vehicle. For Compound IA co-treatment with rotenone, new compound was added together with rotenone-containing cell culture media. After the rotenone exposure, the media was exchanged and replaced by Hanks' BSS for the 1 day post-incubation. The post-treatment media contained Compound IA or vehicle only. As measure of cell viability, cellular ATP content was analyzed using luminescence from ATP-dependent enzymatic oxidation of luciferin by luciferase. RGC-5 cells were be washed with PBS and lysed in lysis buffer (4 mM EDTA, 0.2% Triton X-100) at room temperature. In 96-well plates, ATP measurement buffer (25 mM HEPES pH 7.25, 300 µM D-luciferin, 5 µg/ml firefly luciferase, 75 µM DTT, 6.25 mM MgCl2, 625 µM EDTA and 1 mg/ml BSA) was combined with lysate to start the reaction. Luminescence was quantified immediately using a multimode plate reader (Tecan M1000, Tecan iControl 1.6 software; Tecan Austria GmbH, Grödig, Austria). Effects on cell viability were defined as the percentage of compound-mediated change in cell viability relative to rotenone-induced reduction in cell viability. Data are presented as mean ± SEM. Paired Student's t-test was used to compare non-normalized data. Statistical significance was set at p≤0.05(*), p≤0.01(**) and p≤0.001(***).

Compound | Lipid peroxidation [1] [%] | cell viability, compound-mediated change relative to rotenone-induced reduction, mean (Fig. 2) (RGC-5 cells) | cell viability, compound-mediated change relative to rotenone-induced reduction, mean (Fig. 2) (RGC-5 cells; listed as PP) [%] | cell viability, compound-mediated change relative to rotenone-induced reduction, mean (Fig. 2) (RGC-5 cells; listed as propentophilline)
COC1=C(OC)C(=O)C(CCCCCCCCCCO)=C(C)C1=O [Compound ID] | 110 |  |  | 
CCCn1cnc2c1c(=O)n(CCCCC(C)=O)c(=O)n2C [propentophylline, reference compound] |  | not significant | 2.2 | no significant protective activity
